Measured values taken from patent publication EP4603105A1, “PHARMACEUTICAL COMPOSITION CONTAINING CYCLIC COMPOUND HAVING SELECTIVE KRAS INHIBITORY EFFECT AGAINST HRAS AND NRAS” (CHUGAI SEIYAKU KABUSHIKI KAISHA, priority 2022, dated 2024).
*1 amine or outer side, *2 acyl side, *3 side chain or, on linkers, in order; H or OH if unused. Where a SMILES comes first, the peptide text is derived from it. Bridges are numbered along the chain shown (N, C = ends). [ ]: non-standard residue; d: D form. The star is where a group is joined. hPhe(3-Cl-4-CF3) = N[C@@H](CCc1ccc(C(F)(F)F)c(Cl)c1)C(=O)O; NPrPhe(4-CF3) = CCCN[C@@H](Cc1ccc(C(F)(F)F)cc1)C(=O)O; Piperazinyl(4-(3-oxetanyl)) = C1OCC1N1CCN(*)CC1; X26 = CCCN([C@@H](Cc1ccc(F)cc1)C(=O)[*:2])[*:1]; NMeGly(cPent) = CN[C@H](C(=O)O)C1CCCC1; Pro(4,4-F2) = O=C(O)[C@@H]1CC(F)(F)CN1; NMeD = CN[C@@H](CC(=O)O)C(=O)O; NMeL = CN[C@@H](CC(C)C)C(=O)O; Morpholide = C1CN(*)CCO1; NMeA = CN[C@@H](C)C(=O)O; Ac5c = NC1(C(=O)O)CCCC1; Aze = O=C(O)[C@@H]1CCN1; Ac4c = NC1(C(=O)O)CCC1; NEtG = CCNCC(=O)O; Sar = CNCC(=O)O

Assays:
[1] = target: GDP-bound NRAS wild-type protein (Homo sapiens, UniProt P01111); assay: Binding to NRAS by surface plasmon resonance (SPR), KD and KD ratio to KRAS
Sequence of GDP-bound NRAS wild-type protein (P01111 whole entry): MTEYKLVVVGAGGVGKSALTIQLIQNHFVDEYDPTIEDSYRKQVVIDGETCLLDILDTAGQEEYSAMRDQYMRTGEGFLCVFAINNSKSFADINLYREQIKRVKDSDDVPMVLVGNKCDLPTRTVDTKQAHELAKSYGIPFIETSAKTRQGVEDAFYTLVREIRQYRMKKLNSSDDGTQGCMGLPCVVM
Summary of the method: (§1)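 Recombinant RAS proteins bearing a biotinylated Avi tag and loaded with GDP served as the captured ligand, recaptured fresh every cycle. Binding responses were referenced to an uncoated surface and a buffer-only blank cycle. Dissociation constants were obtained by 1:1 model fitting at 30°C.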

[2] = system: human lung cancer strain NCI-H441; assay type: cell-based
Summary of the method: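 Signal came from […] measured per well once the reagent was added. Beforehand, cells were cultured at 37°C and 5% carbon dioxide on a compound series serially diluted in dimethyl sulfoxide.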

HRAS wild-type protein = HRAS wild-type protein (Homo sapiens, UniProt P01112); assay: Binding to HRAS by surface plasmon resonance (SPR), KD and KD ratio to KRAS
Sequence of HRAS wild-type protein (P01112 whole entry): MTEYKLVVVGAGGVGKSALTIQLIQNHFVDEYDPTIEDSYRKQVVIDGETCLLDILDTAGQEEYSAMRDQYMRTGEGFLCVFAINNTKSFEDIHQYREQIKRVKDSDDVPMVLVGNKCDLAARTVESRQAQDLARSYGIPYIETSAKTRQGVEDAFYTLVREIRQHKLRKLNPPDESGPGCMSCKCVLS
Summary of the method: as §1

[3] = ratio of KD value for GDP-bound NRAS wild-type protein to KD value for KRAS (SPR)
[4] = ratio of KD value for HRAS wild-type protein to KD value for KRAS (SPR)
[5] = ratio of the KD value with respect to GDP-bound NRAS wild-type protein to the KD value with respect to KRAS
[6] = ratio of the KD value with respect to HRAS wild-type protein to the KD value with respect to KRAS
[7] = ratio of KD for GDP-bound NRAS wild-type protein to KD for KRAS
[8] = ratio of KD for HRAS wild-type protein to KD for KRAS

Row | Structure (SMILES) | NRAS /KRAS [1, 3] | IC50 [2] [nM] | HRAS /KRAS (HRAS wild-type protein; [4]) | NRAS /KRAS [1, 5] | HRAS /KRAS (HRAS wild-type protein; [6]) | NRAS /KRAS [1, 7] | HRAS /KRAS (HRAS wild-type protein; [8])
1 | CCO[C@@H]1C[C@H]2C(=O)NC3(CC(F)(F)C3)C(=O)N(C)[C@@H](C(CC)CC)C(=O)N3CCC[C@@H]3CC(=O)N(C)[C@@H](CC3CC3)C(=O)N[C@@H]([C@@H](C)CC)C(=O)N(C)CC(=O)N(C)[C@H]3C/C=C\CCN(C3=O)[C@@H](Cc3ccc(C(F)(F)F)cc3)C(=O)N(C)CC(=O)N[C@@H](CCc3cc(F)c(C(F)(F)F)c(F)c3)C(=O)N2C1 [PP1614] | A (a compound having 10 or more and less than 20 is denoted as A) | 54.2 | A (a compound having 10 or more and less than 20 is denoted as A) |  |  |  | 
2 | CCC[C@H]1C(=O)N[C@@H]([C@@H](C)CC)C(=O)N(C)CC(=O)N(C)[C@H]2C/C=C\CCN(C2=O)[C@@H](Cc2ccc(C(F)(F)F)cc2)C(=O)N(C)CC(=O)N[C@@H](CCc2ccc(C(F)(F)F)c(OC)c2)C(=O)N2C[C@H](OCC)C[C@H]2C(=O)NC2(CC(C)(C)C2)C(=O)N(C)[C@@H](C(CC)CC)C(=O)N(C)[C@H](C(=O)N(C)C)CC(=O)N1C [PP2160] |  | 5.4 |  | A (a compound having 10 or more and less than 20 is denoted as A) | A (a compound having 10 or more and less than 20 is denoted as A) |  | 
3 | CCCN1C(=O)CN(C)C(=O)CN(C)C(=O)[C@H]([C@@H](C)CC)NC(=O)[C@@H]2CCCCCCC[C@@](C)(NC(=O)[C@@H]3C[C@@H](OCC)CN3C(=O)[C@H](CCc3cc(F)c(C(F)(F)F)c(F)c3)NC(=O)CN(C)C(=O)[C@@H]1Cc1ccc(C(F)(F)F)cc1)C(=O)N(C)[C@@H](C1CCCC1)C(=O)N(C)[C@H](C(=O)N1CCOCC1)CC(=O)N2C [PP0898] |  | 120 |  |  |  | B (a compound having 3 or more and less than 10 is denoted as B) | B (a compound having 3 or more and less than 10 is denoted as B)
4 | CCCN1C(=O)[C@@H]2CCN2C(=O)[C@H](C)N(C)C(=O)[C@H]([C@@H](C)CC)NC(=O)[C@H](CC(C)C)N(C)C(=O)C[C@@H](C(=O)N(C)C)NC(=O)[C@H](C2CCCC2)N(C)C(=O)C2(CCC2)NC(=O)[C@@H]2CC(F)(F)CN2C(=O)[C@H](CCc2ccc(C(F)(F)F)c(Cl)c2)NC(=O)CN(C)C(=O)[C@@H]1Cc1ccc(C(F)(F)F)cc1 [PP0382] ([NMeL]I[NMeA][Aze][NPrPhe(4-CF3)][Sar][hPhe(3-Cl-4-CF3)][Pro(4,4-F2)][Ac4c][NMeGly(cPent)]D-NMe2; lactam N-11) |  | 12.1 |  |  |  | C (A compound having a KD ratio of 0.1 or more and less than 3 is denoted as C) | B (a compound having 3 or more and less than 10 is denoted as B)
5 | CCO[C@@H]1C[C@H]2C(=O)NC3(CC(F)(F)C3)C(=O)N(C)[C@@H](C(CC)CC)C(=O)N3CCC[C@@H]3CC(=O)N(C)[C@@H](CC)C(=O)N[C@@H]([C@@H](C)CC)C(=O)N(C)CC(=O)N(C)[C@H]3C/C=C\CCN(C3=O)[C@@H](Cc3ccc(C(F)(F)F)cc3)C(=O)N(C)CC(=O)N[C@@H](CCc3cc(F)c(C(F)(F)F)c(F)c3)C(=O)N2C1 [PP1608] | A (a compound having 10 or more and less than 20 is denoted as A) | 70.1 | A (a compound having 10 or more and less than 20 is denoted as A) |  |  |  | 
6 | CCCN1C(=O)[C@@H]2CCN2C(=O)[C@H](C)N(C)C(=O)[C@H]([C@@H](C)CC)NC(=O)[C@H](CC(C)C)N(C)C(=O)C[C@@H](C(=O)N2CCN(C3COC3)CC2)N(C)C(=O)[C@H](C2CCCC2)N(C)C(=O)C2(CCCC2)NC(=O)[C@@H]2CCCN2C(=O)[C@H](CCc2ccc(C(F)(F)F)c(Cl)c2)NC(=O)CN(C)C(=O)[C@@H]1Cc1ccc(C(F)(F)F)cc1 [PP0184] ([NMeL]I[NMeA][Aze][NPrPhe(4-CF3)][Sar][hPhe(3-Cl-4-CF3)]P[Ac5c][NMeGly(cPent)][NMeD]-{Piperazinyl(4-(3-oxetanyl))}; lactam N-11) |  | 2.1 |  |  |  | C (A compound having a KD ratio of 0.1 or more and less than 3 is denoted as C) | B (a compound having 3 or more and less than 10 is denoted as B)
7 | CC[C@H](C)[C@@H]1NC(=O)[C@H](CC(C)C)N(C)C(=O)C[C@@H](C(=O)N2CCOCC2)N(C)C(=O)[C@H](C2CCCC2)N(C)C(=O)C2(CCCC2)NC(=O)[C@@H]2C[C@H](OC)CN2C(=O)[C@H](CCc2cc(F)c(C(F)(F)F)c(F)c2)NC(=O)CN(C)C(=O)[C@H](Cc2ccc(C(F)(F)F)cc2)N2CCCC[C@@H](C2=O)N(C)C(=O)CN(C)C1=O [PP0557] |  | 14.8 |  | B (a compound having 3 or more and less than 10 is denoted as B) | B (a compound having 3 or more and less than 10 is denoted as B) |  | 
8 | CCCN1C(=O)CN(C)C(=O)CN(CC)C(=O)[C@H]([C@@H](C)CC)NC(=O)[C@H](CC(C)C)N(C)C(=O)C[C@@H](C(=O)N(C)C)NC(=O)[C@H](C2CCCC2)N(C)C(=O)C2(CCC2)NC(=O)[C@@H]2CCCN2C(=O)[C@H](CCc2ccc(C(F)(F)F)c(Cl)c2)NC(=O)CN(C)C(=O)[C@@H]1Cc1ccc(C(F)(F)F)cc1 [PP0368] ([NMeL]I[NEtG][Sar][NPrPhe(4-CF3)][Sar][hPhe(3-Cl-4-CF3)]P[Ac4c][NMeGly(cPent)]D-NMe2; lactam N-11) |  | 115 |  |  |  | B (a compound having 3 or more and less than 10 is denoted as B) | B (a compound having 3 or more and less than 10 is denoted as B)
9 | CCO[C@@H]1C[C@H]2C(=O)NC3(CC(F)(F)C3)C(=O)N(C)[C@@H](C(CC)CC)C(=O)N(C)[C@H](CC)CC(=O)N(C)[C@@H](CC3CC3)C(=O)N[C@@H]([C@@H](C)CC)C(=O)N(C)CC(=O)N(C)[C@H]3C/C=C\CCN(C3=O)[C@@H](Cc3ccc(C(F)(F)F)cc3)C(=O)N(C)CC(=O)N[C@@H](CCc3cc(F)c(C(F)(F)F)c(F)c3)C(=O)N2C1 [PP1632] | A (a compound having 10 or more and less than 20 is denoted as A) | 116 | A (a compound having 10 or more and less than 20 is denoted as A) |  |  |  | 
10 | CCCN(C)C(=O)[C@@H]1CC(=O)N(C)[C@@H](CC)C(=O)N[C@@H]([C@@H](C)CC)C(=O)N(C)CC(=O)N(C)[C@H]2C/C=C\CCN(C2=O)[C@@H](Cc2ccc(C(F)(F)F)cc2)C(=O)N(C)CC(=O)N[C@@H](CCc2cc(F)c(C(F)(F)F)c(F)c2)C(=O)N2C[C@H](OCC)C[C@H]2C(=O)NC2(CC(F)(F)C2)C(=O)N(C)[C@@H](C2CCCC2)C(=O)N1C [PP1732] | AA (a compound having 20 or more is denoted as AA) | 6.4 | A (a compound having 10 or more and less than 20 is denoted as A) |  |  |  | 
11 | CCO[C@@H]1C[C@H]2C(=O)NC3(CC(C)(C)C3)C(=O)N(C)[C@@H](C3CCCC3)C(=O)N(C)[C@H](C(=O)N(C)CC)CC(=O)N(C)[C@@H](CC(C)C)C(=O)N[C@@H]([C@@H](C)CC)C(=O)NCC(=O)N(C)[C@H]3C/C=C\CCN(C3=O)[C@@H](Cc3ccc(C(F)(F)F)cc3)C(=O)N(C)CC(=O)N[C@@H](CCc3cc(F)c(C(F)(F)F)c(F)c3)C(=O)N2C1 [PP1771] | A (a compound having 10 or more and less than 20 is denoted as A) | 6.6 | A (a compound having 10 or more and less than 20 is denoted as A) |  |  |  | 
12 | CCCN1C(=O)CN(C)C(=O)CN(C)C(=O)[C@H]([C@@H](C)CC)NC(=O)[C@H](CC(C)C)N(C)C(=O)C[C@@H](C(=O)N2CCOCC2)N(C)C(=O)[C@H](C2CCCC2)N(C)C(=O)C2(CCCC2)NC(=O)[C@@H]2CCCN2C(=O)[C@H](CCc2ccc(C(F)(F)F)c(Cl)c2)NC(=O)CN(C)C(=O)[C@@H]1Cc1ccc(F)cc1 [PP0214] ([NMeL]I[Sar][Sar][X26][Sar][hPhe(3-Cl-4-CF3)]P[Ac5c][NMeGly(cPent)][NMeD]-Morpholide; lactam N-11) |  | 5.4 |  |  |  | B (a compound having 3 or more and less than 10 is denoted as B) | C (A compound having a KD ratio of 0.1 or more and less than 3 is denoted as C)
13 | CCO[C@@H]1C[C@H]2C(=O)NC3(CC(C)(C)C3)C(=O)N(C)[C@@H](C3CCCC3)C(=O)N(C)[C@H](C(=O)N3CCCC3)CC(=O)N(C)[C@H]3CCC/C=C/c4ccc(cc4)C[C@@H](C(=O)N(C)CC(=O)N[C@@H](CCc4cc(F)c(C(F)(F)F)c(F)c4)C(=O)N2C1)N1CC/C=C\C[C@@H](C1=O)N(C)C(=O)CN(C1CC1)C(=O)[C@H]([C@@H](C)CC)NC3=O [PP2583] |  | 4.1 |  |  |  | A (a compound having 10 or more and less than 20 is denoted as A) | A (a compound having 10 or more and less than 20 is denoted as A)
14 | CC[C@H](C)[C@@H]1NC(=O)[C@H](C)N(C)C(=O)C[C@@H](C(=O)N2CCOCC2)N(C)C(=O)[C@H](C2CCCC2)N(C)C(=O)C2(CCCC2)NC(=O)[C@@H]2CCCN2C(=O)[C@H](CCc2cc(F)c(C(F)(F)F)c(F)c2)NC(=O)CN(C)C(=O)[C@H](Cc2ccc(C(F)(F)F)cc2)N2CCCC[C@@H](C2=O)N(C)C(=O)CN(C)C1=O [PP0549] |  | 13 |  | C (A compound having a KD ratio of 0.1 or more and less than 3 is denoted as C) | B (a compound having 3 or more and less than 10 is denoted as B) |  | 
